In a melting point compilation (Tetko et al.; mined from patent text by program, amines drawn as free bases though some values may be those of a salt):

| SMILES | melting point |
| --- | --- |
| C#Cc1ccc2c(c1)C(Cc1ccnc(F)c1)(Cc1ccnc(F)c1)c1cccnc1-2 | 139 to 140 °C |
| CCOC(=O)c1ncc2[nH]c3ccc(Oc4ncccn4)cc3c2c1COC | 128 to 129 °C |
| CC1([N+](=O)[O-])C(c2ccco2)CC(=C(C#N)C#N)CC1c1ccco1 (centres undefined) | 192 °C |
| O=[N+]([O-])c1cc2ccc(C(Cl)(Cl)Cl)nc2c2nc(C(Cl)(Cl)Cl)ccc12 | 228 to 231 °C |
| Cc1ccc(Cn2nc(CNC(=O)NC(C)(C)C)cc2-c2ccc(Cl)c(Cl)c2)cc1Cl | 181 °C |
| O=c1c2ccc(O)cc2nc(-c2ccc(O)cc2)n1-c1ccc(OCCCl)cc1 | 285 to 287 °C |
| COC(=O)c1ccc(-c2nn(Cc3ccccc3)c3ccc(N)cc23)o1 | 195 to 196 °C |
| Cc1ccnc(NC#N)n1 | 203 °C |
| CCC1(CO)CCCN2CCc3c([nH]c4ccccc34)C21 (centres undefined) | 230 to 233 °C |
| CCCCC1CCC(c2ccc(C(=O)CC(=O)C(F)(F)F)cc2)CC1 (centres undefined) | 65 °C |
| CC(C)(C)OC(=O)N1CCN(c2c(F)cc(N3CC(CO)OC3=O)cc2F)CC1 (centres undefined) | 164 to 166 °C |
| Oc1cccc(NCCc2ccccc2)n1 | 97 to 99 °C |
| Oc1nc2ccc(Br)cc2[nH]1 | 305 to 307 °C |
| O=c1c2c(oc3c1nnn3Cc1ccccc1)CCS2 | 157 to 160 °C |
| COC(=O)c1ccc(OC)cc1C(C)=O | 48 to 50 °C |
| C=C(c1ccc(-n2ccnc2)nc1)C(O)(Cn1cncn1)c1ccc(F)cc1F (centres undefined) | 145 to 148 °C |
| CCn1cc(C(=O)O)c(=O)c2cc(F)c(N3CCSC3)nc21 | 268 to 270 °C |
| O=C1NCCN1S(=O)(=O)N1CCCCC1 | 201 °C |
| CN(c1ccc2c(c1)CCC2)c1nc(=O)c2cccnc2s1 | 157 to 160 °C |
| COC(=O)C(=CNc1cc(-c2ccccc2Cl)sc1C(=O)O)SC | 80 to 85 °C |
| CCc1nc2c(ccc3nc(C)c(C)nc32)cc1C | 137 to 138 °C |
| COc1ccccc1CN1CCN(C)CC1C1=NCCN1 (centres undefined) | 168 to 170 °C |
| O=C1c2ccc(Cl)cc2CCc2c(O)cccc21 | 185 °C |
| NS(=O)(=O)CC(=O)c1ccc(Cl)cc1Cl | 136 to 139 °C |
| CN(C)CCc1cccc(OCCCNc2nc(N)nn2C)c1 | 81 to 82 °C |

| SMILES | melting point |
| --- | --- |
| CCCNc1nc(C#N)c(C#N)nc1CC(C)C | 107 to 110 °C |
| Cc1nc(C(F)(F)F)c(C(=O)Nc2ccccc2-c2cc(F)c(F)c(F)c2)s1 | 148 to 152 °C |
| CC(C)(C)c1ccc(/C=N/OCCCOc2ccc(C(=O)O)c(NC(=O)c3ccccc3C(F)(F)F)c2)cc1 | 121 to 122 °C |
| CN1CCC2(c3cccc(O)c3)CCCC2C1 (centres undefined) | 151 to 153 °C |
| CC1(C)C=C(C(=O)O)CC1 | 67 to 69 °C |
| OCC1OC(n2cnc3c(NCc4cccc(I)c4)ncnc32)C(O)C1O (centres undefined) | 172 °C |
| Cc1cc(-n2ccnc2)c2cccc(OCc3c(Cl)ccc(S(=O)(=O)N4CC[C@@H](O)C4)c3Cl)c2n1 | 166 °C |
| COc1cc([N+](=O)[O-])ccc1F | 69 to 71 °C |
| COC(=O)Cc1ccc(OCCNC(=O)[C@@H]2Cc3ccccc3N2S(=O)(=O)c2ccc(OC(C)(C)C)cc2)cc1 | 45 to 48 °C |
| COc1cc2c(cc1OC)C(c1ccc(Cl)cc1)=NN=C(C)C2 | 188 to 198 °C |
| O=C(Nc1ccc(N(CCCl)CCCl)cc1)Nc1cccc([N+](=O)[O-])c1 | 246 to 247 °C |
| Cc1c(-c2ccc(O)cc2)sc(C=O)c1-c1ccc(O)c(F)c1 | 223 to 226 °C |
| COC(=O)c1ccc(OC)c(NC(=NCl)c2ccc(Cl)cc2Cl)c1 | 120 °C |
| FC(F)(F)c1ccc(-c2cc(C(F)(F)F)n3ncc(-c4ccncc4)c3n2)cc1 | 261 °C |
| O=C(O)c1cnc(-c2nnn[nH]2)cc1-c1ccccc1 | > 300 °C |
| Cc1cc([Si](C)(C)C)c(C)cc1[Si](C)(C)C | 56 to 57.5 °C |
| COC(=O)C1=C(C)N(C)C(C)=C(C(=O)OC)C1c1ccccc1 | 151 to 153 °C |
| Cc1cc(C)c(O)c(CC(C)(C)CO)c1 | 117 °C |
| CCOC(=O)OC1=C([C@H]2CC[C@H](c3ccc(Cl)cc3)CC2)C(=O)c2ccccc2C1=O | 145 to 149 °C |
| CC1(C)c2cc(OCc3ccccc3)ccc2OC1CO (centres undefined) | 55 to 58 °C |
| CC(C)n1c(CCN2CCN(c3cccc(C(F)(F)F)c3)CC2)nc2cc(Br)c3ccccc3c21 | 161 to 162 °C |
| CCC(=S)OC1(C(=O)COC(=O)C(C)C)CCC2C3CC(C)C4=CC(=O)C=CC4(C)C3C(O)CC21C (centres undefined) | 151 to 152 °C |
| Clc1ccc2nc(CN3CCN(c4ncccn4)CC3)cn2c1 | 114 to 115 °C |
| CN1CCC(C(=O)NO)(S(=O)(=O)c2ccc(Oc3ccc(Cl)cc3)cc2)CC1 | 52 °C |
| CCOC(=O)C(C)Oc1cc(-c2ccccc2)nc2ccccc12 (centres undefined) | 80 °C |

| SMILES | melting point |
| --- | --- |
| CC(C)(C)c1ccc(CCC(=O)CCC2CCCCCC2)cc1NC(=O)CC1c2ccccc2Oc2ccccc21 | 136 to 137 °C |
| COc1ccc(Nc2ccc(Cl)cc2C(=O)O)cc1 | 188 to 189 °C |
| CC(C)(O)CCNC(=O)c1n[nH]cc1NC(=O)c1ccccn1 | 193 to 194 °C |
| COC(=O)c1ccc(NC(=O)c2ccc(-c3ccccc3)cc2)cc1 | 247 to 251 °C |
| COc1ccc(N2CCC(c3cnc(N)nc3N)CC2)cc1 | 224 to 225 °C |
| COc1ccc2c(c1)CN(Nc1ccncc1)CC2 | 188 to 189 °C |
| O=C(NN=Cc1ccccc1)c1ccc(C(F)(F)F)cc1 | 216 to 217 °C |
| CCOC(=O)c1ccc(/C=C(\COCc2ccc(OC)cc2)Cn2ccnc2)c(OC)c1 | 74 to 74.5 °C |
| CCOC(=O)c1ccccc1NC(=O)NCC1(c2ccccc2)CCCCC1 | 99 to 101 °C |
| CNC(=O)Nc1ccc(OCCNCC(O)c2ccc(O)cc2)cc1 (centres undefined) | 155 to 160 °C |
| NCc1ccccc1-c1ccc(C(=O)N2Cc3ccc(C(=O)NCc4cccnc4)n3Cc3ccccc32)cc1 | 115 to 120 °C |
| O=C(c1ccc(O)cc1)N1CC=CCC1 | 202 to 206 °C |
| O=C(Cc1cccc2ccccc12)NCc1cccc2c1C(=O)N(C1CCC(=O)NC1=O)C2=O (centres undefined) | 187 to 189 °C |
| Cc1nnc(-c2ccnc3[nH]c(CCc4ccccc4)cc23)o1 | 210 °C |
| CC(=O)N1CCC(OC(CO)c2ccccc2)CC1 (centres undefined) | 92 to 94 °C |
| O=C(Nc1nc(C2CC2)no1)C1c2ccccc2Oc2ccccc21 | 275 °C |
| CC=CC1Nc2ccccc2-c2c([N+](=O)[O-])cnn21 (centres undefined) | 115 to 117 °C |
| O=c1[nH]c2c(c3nc(-c4ccccc4)nn13)CN(Cc1ccccc1)CC2 | 257 to 259 °C |
| O=[N+]([O-])c1cc(CO)c(CO)cc1Oc1ccc(F)cc1F | 124 °C |
| CN1CCN(c2ccc(-c3cnc4c(c3)N(S(=O)(=O)c3ccccc3Cl)CCN4)cn2)CC1 | 164 to 165 °C |
| O=C(NOC1CCCCO1)c1cnc(N2CCC(NS(=O)(=O)c3ccc4ccccc4c3)CC2)nc1 (centres undefined) | 226 °C |
| CCOC(=O)CNC(=O)N(N(CCCl)S(C)(=O)=O)S(C)(=O)=O | 121 to 122 °C |
| COC(=O)[C@@H]1CCCCN1S(=O)(=O)c1ccc(Cl)c(COc2cccc3c(-n4ccnc4)cc(C)nc23)c1Cl | 81 °C |
| COCc1c(C(C)C)nc(-c2ccc(F)cc2)c(C=O)c1C(C)C | 77 °C |
| Cn1ccc2ccc(-c3ccc(C(C)(C)C)cc3)cc21 | 92 to 94 °C |

| SMILES | melting point |
| --- | --- |
| CC1c2cc(C(C)(C)C)cc(C(C)(C)C)c2OP(Cl)Oc2c1cc(C(C)(C)C)cc2C(C)(C)C (centres undefined) | 194 to 198 °C |
| CC(C)(C)OC(=O)NC1C=Cc2ccccc2CC1 (centres undefined) | 146 to 148 °C |
| CC(C)c1ccc2c(c1)C(=O)c1ccc(-c3nnn(C)n3)cc1S2(=O)=O | 219 to 221 °C |
| COc1cc2c(cc1Br)CC(SC)=NN=C2c1ccc([N+](=O)[O-])cc1 | 225 to 227 °C |
| CCc1nn(CC(=O)NN)c(CC)c1Oc1cc(Cl)cc(Cl)c1 | > 250 °C |
| CC=NNC1=NCCc2ccccc21 | 152 to 154 °C |
| COc1cc(S(C)(=O)=O)c(C)cc1OCC(=O)NCC(O)COc1ccccc1 (centres undefined) | 103 to 105 °C |
| Cc1nc(NC(=O)NS(=O)(=O)c2ccccc2OC(Cl)=CCl)nc2c1CCO2 | 208 to 210 °C |
| COCCn1c(C)c(C(=O)c2c(Cl)c(Cl)c(Cl)c(Cl)c2C(=O)O)c2ccccc21 | 182 to 184 °C |
| C=CCNc1nc(N)nc2c1ncn2C1CC(F)C(CO)O1 (centres undefined) | 128 to 129 °C |
| O=c1c(CCc2cccs2)cc2cccnc2n1-c1cccc([N+](=O)[O-])c1 | 175 to 176 °C |
| O=C1CCC(N2Cc3cc(CNC(=O)Nc4ccc(F)cc4)ccc3C2=O)C(=O)N1 (centres undefined) | 262 to 264 °C |
| Cc1cnc(N2CCC(c3ccc(S(N)(=O)=O)cc3)CC2)n1C | 256 to 257 °C |
| CCCCCCCCCCCCCCCCn1c2cc(Cl)ccc2c2ccc(Cl)cc21 | 82 to 83 °C |
| COc1cc(OC)nc(NC(=O)NS(=O)(=O)c2nc(C)cc3c2C(=O)OC3)n1 | 149 to 153 °C |
| Cc1nc(N)ccc1NC(=NC#N)Oc1ccccc1 | 189 to 190 °C |
| CC(C)c1cccc(C(C)C)c1NC(=O)C(Cc1ccccc1)NCc1ccccc1 (centres undefined) | 120 to 124 °C |
| O=C(c1ccccc1Cl)c1ccccc1Nc1ncccc1[N+](=O)[O-] | 119 °C |
| CO[C@]1(c2csc(Sc3ccc4c(c3)CC/C4=N\O)c2)CCO[C@@H]1C (racemic) | 140 to 142 °C |
| CN1C(=O)CCC2(C)C3CCC4(C)C(Oc5ccc([N+](=O)[O-])cc5)CCC4C3CCC12 (centres undefined) | 183 to 184 °C |
| Cc1ccccc1-c1coc2cc(OCC(=O)O)cc(Cl)c2c1=O | 191 to 192 °C |
| CCOP(=O)(OCC)C(CNC=NNC(=O)c1nc2ccccc2[nH]1)P(=O)(OCC)OCC | 143 °C |
| O=S(=O)(Oc1ccc2c(OS(=O)(=O)c3ccc(O)cc3)c3cc(OS(=O)(=O)c4ccc(O)cc4)ccc3cc2c1)c1ccc(O)cc1 | 192 to 194 °C |
| CCn1cc(C(=O)O)c(=O)c2cc(F)c(N3CCN(Cc4ccc([N+](=O)[O-])cc4)CC3)c(F)c21 | 241 to 242 °C |
